Columns and labels:
[1] = Circular dichroism, heparin-induced coil-to-helix transition (ellipticity at 222 nm); assay type: physicochemical; settings: CD, peptide 0.05 mg/mL, 2.9 mL sample, 1 cm path; titration of low molecular weight heparin (enoxaparin) up to 1.5 mg; data collected in triplicate
Procedure: CD spectra were obtained for all peptides (0.05 mg/mL in PBS) using a DSM 1000 CD instrument (Olis Inc., Bogart, Georgia) with a peptide sample volume of 2.9 mL and a 1 cm cuvette path length. Data were collected in triplicate over the 190–250 nm wavelength range with 1 nm increments. Increasing amounts of low molecular weight heparin (Enoxaparin sodium, Sanofi, Bridgewater, NJ) up to 1.5 mg was added to each peptide to induce secondary structure transitions. All data were corrected for background by subtraction of a PBS or PBS with enoxaparin CD spectrum. Mean residue ellipticity [Θ] was calculated according to: Θ *(MW/no. AA)/(10 *conc. *l) where: Θ is ellipticity (millidegrees); MW is the molecular weight of the peptide (3356.8 Da); no. AA, is the number of amino acid residues, (31); conc. is the peptide concentration (mg/mL), and l, is the cuvette path length (cm).

[2] = mouse, in vivo, iv
Procedure: Peptides (20–40 μg) were radiolabeled with iodine-125 (^125I; Perkin Elmer, Waltham, MA) as previously described. Briefly, ~ 2 mCi of ^125I in buffered sodium phosphate pH 7.6 was mixed with peptide and 20 μg chloramine T in a volume of 10 µL water for 1 min. The reaction was quenched using 20 μg sodium metabisulphite in 10 µL water. Radiolabeled product was separated from free isotope by gel filtration chromatography using a Sephadex G-25 size-exclusion matrix (PD10; GE Healthcare) equilibrated with 0.1% gelatin/PBS. Fractions were collected manually and radioactivity in each measured by gamma counting after which the peak fractions were pooled. Radiochemical purity was assessed qualitatively by estimating the free radioiodide from phosphor images (Cyclone Storage Phosphor System, PerkinElmer, Shelton, CT) of SDS-PAGE gels. SPECT/CT imaging was performed as described previously. […] Low energy (^125I; 25–45 keV) gamma photons were detected at each of 60, 16-s projections with 90 mm of bed travel in 1.5 revolutions. […] A small piece of each tissue was weighed in tared vials and radioactivity quantified using an automated gamma counter (1480 Wizard 3 Gamma Counter, Perkin Elmer). The tissue radioactivity data were expressed as % injected dose per gram of tissue (%ID/g). […]

aqaYS KAQKAQAKQAKQAQKAQKAQAKQAKQ [^aqap5, 31-residue p5 variant with three D-amino acids at the N-terminus; tested 125I-labeled in vivo]
half maximal value of the heparin-mediated transition in mean residue ellipticity at 222 nm [1]: 0.33 mg
radioactivity in the kidneys [2]: ~ 39 %ID/g

Source: paper PMC5725832, “Evaluation of the effect of D-amino acid incorporation into amyloid-reactive peptides” (Journal of Translational Medicine, 2017)
